Source: patent US12257247B2 (Monte Rosa Therapeutics AG, priority 2023, dated 2025)
Read-outs that look alike come from different tables or passages of the source.

Molecular target: T1, VAV1 (Homo sapiens, UniProt P15498+Q96SW2)
T1 construct: A heterozygous VAV1 C-terminal HiBiT knock-in pool was generated at Monte Rosa Therapeutics from a clonal Jurkat cell; endogenous in cells; host or cells: Jurkat clone stably expressing LgBiT, homozygous GSPT1-G575N; heterozygous VAV1-HiBiT knock-in pool
Assay: VAV1 degradation activity, VAV1-HiBiT knock-in Jurkat luminescence assay (Example A, Table 1)
Assay type: cell-based
Conditions: VAV1-HiBiT knock-in Jurkat cells; for Dmax: Jurkat
Description: Cells were plated at 10,000 cells per well using Multiflo (BioTek) or Multi Drop Combi (Thermo Fisher) in 384-well white solid bottom plates (Corning, 3570BC) in 25 ul volume in RPMI 1640 media (Thermo Fischer, 22400105) containing 10% FBS (Corning, 35-075-CV), 1% Penicillin/Streptomycin (ThermoFisher Scientific, 15140-122), and 1% Endurazine (Nano-Glo Endurazine Live Cell Substrate (Promega, N2571)). Cells were incubated for ˜16 hours at 37° C., 5% CO2. 25 nL of a compound at 10 μM were dosed into the plate using an Echo® 650 liquid handler (Labcyte). Cells were incubated at 37° C., 5% CO2 and signal was read at 6 and 24 hours after compound addition on a Pherastar FSX using “LUM plus” optic module.
Analysis was performed in Scinamic (Scinamic, Cambridge, MA). Luminescence response (R) was calculated by the formula: response=100*(S−N)/(P−N) where S is the signal of the well, N and P the mean negative and positive control values respectively of the same plate. The luminescence response was then fitted in Scinamic using a 3-parameter agonist logistic fit (hillslope=1, EC50>0, top/bottom unconstrained).

[1] = luminescence read at 6 and 24 hours, read-out: VAV1 Dmax %
[2] = luminescence read at 6 and 24 hours, read-out: VAV1 Dmax %, class
[3] = luminescence read at 6 and 24 hours, read-out: VAV1 DC50
[4] = luminescence read at 6 and 24 hours, read-out: VAV1 DC50 (nM), class
[5] = luminescence read at 6 and 24 hours after compound addition, read-out: VAV1 Dmax %
[6] = luminescence read at 6 and 24 hours after compound addition, read-out: VAV1 Dmax %, class
[7] = luminescence read at 6 and 24 hours after compound addition, read-out: VAV1 DC50
[8] = luminescence read at 6 and 24 hours after compound addition, read-out: VAV1 DC50 (nM), class
[9] = luminescence read at 6 and 24 hours

Nc1ccc(-c2cccc(C3CCC(=O)NC3=O)c2Cl)cc1OC(F)F (centres unmarked) [Compound 113]
Dmax [1]: 64.6%
Dmax [2]: 60 to 90%
DC50 [3]: 482 nM
DC50 [4]: 100 to 1000 nM

O=C1CCC(c2cccc(-c3ccc(CN4Cc5cccnc5C4=O)cc3)c2Cl)C(=O)N1 (centres unmarked) [Compound 299]
Dmax [1]: 91.6%
Dmax [2]: > 90%
DC50 [3]: 91.5 nM
DC50 [4]: ≤ 100 nM

O=C1CCC(c2cccc(-c3ccc(CN4C(=O)CCCC45CC5)cc3)c2Cl)C(=O)N1 (centres unmarked) [Compound 294]
Dmax [1]: 95.7%
Dmax [2]: > 90%
DC50 [3]: 8.3 nM
DC50 [4]: ≤ 100 nM

O=C1CCC(c2cccc(-c3ccc(-n4c(C(F)F)cccc4=O)cc3)c2Cl)C(=O)N1 (centres unmarked) [Compound 238, 3-(2-chloro-4′-(6-(difluoromethyl)-2-oxopyridin-1(2H)-yl)-[1,1′-biphenyl]-3-yl)piperidine-2,6-dione]
Dmax [1]: 98.7%
Dmax [2]: > 90%
DC50 [3]: 2.24 nM
DC50 [4]: ≤ 100 nM

O=C1CCC(c2cccc(-c3ccc(N4C(=O)CCCC45CC5)nc3)c2Cl)C(=O)N1 (centres unmarked) [Compound 389, 3-(2-chloro-3-(6-(5-oxo-4-azaspiro[2.5]octan-4-yl)pyridin-3-yl)phenyl)piperidine-2,6-dione]
Dmax [1]: 88.5%
Dmax [2]: 60 to 90%
DC50 [3]: 41.4 nM
DC50 [4]: ≤ 100 nM

O=C1CCC(c2cccc(-c3ccc(N4CCOC4=O)cc3)c2Cl)C(=O)N1 (centres unmarked) [Compound 212, 3-(2-chloro-4′-(2-oxooxazolidin-3-yl)-[1,1′-biphenyl]-3-yl)piperidine-2,6-dione]
Dmax [1]: 47.3%
Dmax [2]: < 60%
DC50 [3]: 7990 nM
DC50 [4]: > 1000 nM

CC1(C)Cc2cc(-c3cccc(C4CCC(=O)NC4=O)c3Cl)ccc2N1 (centres unmarked) [Compound 497, 3-(2-chloro-3-(2,2-dimethylindolin-5-yl)phenyl)piperidine-2,6-dione]
Dmax [5]: 95.8%
Dmax [6]: > 90%
DC50 [7]: 18 nM
DC50 [8]: ≤ 100 nM

O=C1CCC(c2cccc(-c3cccc(COC4CCOC4)c3)c2Cl)C(=O)N1 (centres unmarked) [Compound 190, 3-(2-chloro-3′-(((tetrahydrofuran-3-yl)oxy)methyl)-[1,1′-biphenyl]-3-yl)piperidine-2,6-dione]
Dmax [1]: 21.5%
Dmax [2]: < 60%
DC50 [3]: 3330 nM
DC50 [4]: > 1000 nM

O=C1CCC(c2cccc(-c3ccc(Cc4cccnn4)cc3)c2Cl)C(=O)N1 (centres unmarked) [Compound 453, 3-(2-chloro-4′-(pyridazin-3-ylmethyl)-[1,1′-biphenyl]-3-yl)piperidine-2,6-dione]
Dmax [1]: 97.8%
Dmax [2]: > 90%
DC50 [3]: 13.4 nM
DC50 [4]: ≤ 100 nM

O=C1CCC(c2cccc(-c3ccc(N4C(=O)COCC45CC5)cc3)c2Cl)C(=O)N1 (centres unmarked) [Compound 324]
Dmax [1]: 97.8%
Dmax [2]: > 90%
DC50 [3]: 3.46 nM
DC50 [4]: ≤ 100 nM

Cc1ccnc(Cc2ccc(-c3cccc(C4CCC(=O)NC4=O)c3Cl)cc2)n1 (centres unmarked) [Compound 437, 3-(2-chloro-4′-((4-methylpyrimidin-2-yl)methyl)-[1,1′-biphenyl]-3-yl)piperidine-2,6-dione]
Dmax [1]: 96.5%
Dmax [2]: > 90%
DC50 [3]: 5.92 nM
DC50 [4]: ≤ 100 nM

O=C1CCC(c2cccc(-c3ccc(CN4C(=O)CC45CCC5)cc3)c2Cl)C(=O)N1 (centres unmarked) [Compound 279]
Dmax [1]: 98.5%
Dmax [2]: > 90%
DC50 [3]: 4.83 nM
DC50 [4]: ≤ 100 nM

O=C1CCC(c2cccc(-c3ccc(CN4CCCCC4=O)cc3)c2Cl)C(=O)N1 (centres unmarked) [Compound 168, 3-(2-chloro-4′-((2-oxopiperidin-1-yl)methyl)-[1,1′-biphenyl]-3-yl)piperidine-2,6-dione]
Dmax [1]: 91.5%
Dmax [2]: > 90%
DC50 [3]: 18.8 nM
DC50 [4]: ≤ 100 nM

O=C1CCC(c2cccc(-c3ccc(CN4Cc5ccncc5C4=O)cc3)c2Cl)C(=O)N1 (centres unmarked) [Compound 301]
Dmax [1]: 86.2%
Dmax [2]: 60 to 90%
DC50 [3]: 71.2 nM
DC50 [4]: ≤ 100 nM

O=C1CCC(c2cccc(-c3ccc(CN4C(=O)CCC45CCC5)cc3)c2Cl)C(=O)N1 (centres unmarked) [Compound 293]
Dmax [1]: 95.8%
Dmax [2]: > 90%
DC50 [3]: 6.99 nM
DC50 [4]: ≤ 100 nM

Cn1ccc(CN2CCc3cc(-c4cccc(C5CCC(=O)NC5=O)c4Cl)ccc32)n1 (centres unmarked) [Compound 489, 3-(2-chloro-3-(1-((1-methyl-1H-pyrazol-3-yl)methyl)indolin-5-yl)phenyl)piperidine-2,6-dione]
Dmax [5]: 97.8%
Dmax [6]: > 90%
DC50 [7]: 2.84 nM
DC50 [8]: ≤ 100 nM

O=C1CCC(c2cccc(-c3ccc(N4Cc5cccnc5C4=O)cc3)c2Cl)C(=O)N1 (centres unmarked) [Compound 465, 3-(2-chloro-4′-(7-oxo-5,7-dihydro-6H-pyrrolo[3,4-b]pyridin-6-yl)-[1,1′-biphenyl]-3-yl)piperidine-2,6-dione]
Dmax [1]: 39.9%
Dmax [2]: < 60%
DC50 [3]: ≥ 10000 nM
DC50 [4]: > 1000 nM

O=C1CCC(c2cccc(-c3ccc(Nc4ccccn4)cc3)c2Cl)C(=O)N1 (centres unmarked) [Compound 215, 3-(2-chloro-4′-(pyridin-2-ylamino)-[1,1′-biphenyl]-3-yl)piperidine-2,6-dione]
Dmax [1]: 96.8%
Dmax [2]: > 90%
DC50 [3]: 14.1 nM
DC50 [4]: ≤ 100 nM

O=C1CCC(c2cccc(-c3ccc(N4C(=O)OCCC45CC5)cc3)c2Cl)C(=O)N1 (centres unmarked) [Compound 345, 3-(2-chloro-4′-(5-oxo-6-oxa-4-azaspiro[2.5]octan-4-yl)-[1,1′-biphenyl]-3-yl)piperidine-2,6-dione]
Dmax [1]: 97.9%
Dmax [2]: > 90%
DC50 [3]: 3.53 nM
DC50 [4]: ≤ 100 nM

O=C1CN(CCOc2ccc(-c3cccc(C4CCC(=O)NC4=O)c3Cl)cc2)CCN1 (centres unmarked) [Compound 121]
Dmax [1]: 94%
Dmax [2]: > 90%
DC50 [3]: 11 nM
DC50 [4]: ≤ 100 nM

O=C1CCC(c2cccc(-c3ccc(-n4c(C(F)(F)F)cccc4=O)cc3)c2Cl)C(=O)N1 (centres unmarked) [Compound 443, 3-(2-chloro-4′-(2-oxo-6-(trifluoromethyl)pyridin-1(2H)-yl)-[1,1′-biphenyl]-3-yl)piperidine-2,6-dione]
Dmax [1]: 99.3%
Dmax [2]: > 90%
DC50 [3]: 2.27 nM
DC50 [4]: ≤ 100 nM

Nc1cc(-c2cccc(C3CCC(=O)NC3=O)c2Cl)ccc1Cl (centres unmarked) [Compound 138]
Dmax [1]: 84.6%
Dmax [2]: 60 to 90%
DC50 [3]: 604 nM
DC50 [4]: 100 to 1000 nM

O=C1CCC(c2cccc(-c3ccc(C4COC4)cc3)c2Cl)C(=O)N1 (centres unmarked) [Compound 198, 3-(2-chloro-4′-(oxetan-3-yl)-[1,1′-biphenyl]-3-yl)piperidine-2,6-dione]
Dmax [1]: 54.6%
Dmax [2]: < 60%
DC50 [3]: 4840 nM
DC50 [4]: > 1000 nM

CC1(C)CCN(Cc2ccc(-c3cccc(C4CCC(=O)NC4=O)c3Cl)cc2)C(=O)C1 (centres unmarked) [Compound 285]
Dmax [1]: 95.2%
Dmax [2]: > 90%
DC50 [3]: 10.2 nM
DC50 [4]: ≤ 100 nM

Cn1ccc(C(=O)Nc2ccc(-c3cccc(C4CCC(=O)NC4=O)c3Cl)cc2)n1 (centres unmarked) [Compound 207, N-[4-[2-chloro-3-(2,6-dioxo-3-piperidyl)phenyl]phenyl]-1-methyl-pyrazole-3-carboxamide]
Dmax [1]: 88.7%
Dmax [2]: 60 to 90%
DC50 [3]: 34.7 nM
DC50 [4]: ≤ 100 nM

CC1(C)CN(c2cccc(-c3ccc(CC4CCC(=O)NC4=O)cc3Cl)c2)C(=O)CO1 (centres unmarked) [Compound 280]
VAV1 Dmax % [9]: 83.31%
VAV1 Dmax %, class [9]: B (B represents Dmax % >60% and <=90%)
DC50 [3]: 44.9 nM
DC50 [4]: ≤ 100 nM
